Assay results taken from patent US7320785B2, “Compositions and methods for modulation of DARPP-32 phosphorylation” (The Rockefeller University, priority 2001, dated 2008).
Read-outs that look alike come from different tables or passages of the source. Marks after values point to notes of the source that are not given here.

Legend:
DARPP-32 [1] = assay: DARPP-32 phosphorylation in mouse brain slices, immunoblotting with phosphorylation state-specific antibodies; conditions: for activity at 10 µM: Mus musculus
DARPP-32 [2] = conditions: cited from earlier work
[3] = pNPP hydrolysis by recombinant PP2C isoforms (phosphatase assay); format: biochemical, rat; conditions: for Vmax of pNPP hydrolysis, Mn^2+ compared to Mg^2+ (higher): 20 mM Mn^2+ versus 20 mM Mg^2+; for Vmax / kcat / Km: pNPP as substrate; for Km: 37° C.
Description: The activity of PP2C isoforms using pNPP as substrate was assayed as previously described (Brumel et al., 1997). […] The reaction was stopped by addition of 1 ml of 0.1 M NaOH, and the initial rate of p-nitrophenol release was determined spectrophotometrically at 405 nm (using a molar extinction coefficient of 18 000 M−1 cm−1).
(§1) Kinetic parameters (Km and Vmax) were determined from Lineweaver-Burk plots.
Legend Table 7. Enzymatic activities of PP2C isoforms assayed using pNPP as substrate. Phosphatase activity was measured using pNPP as substrate by the change in absorbance at 405 nm. Km and Vmax values were calculated from Lineweaver-Burk plots of the data.

phospho-Ser137-DARPP-32 = assay: Dephosphorylation of phospho-Ser137-DARPP-32 by recombinant PP2C isoforms; format: biochemical, rat; conditions: [^32P]phospho-Ser137 DARPP-32 as substrate; in the presence of 10 mM Mn^2+
Description: The activity of PP2C isoforms using ^32P-DARPP (phosphorylated at Ser137) was assayed at 37° C. in a reaction mixture containing 25 mM Tris-HCl, pH 7.5, 10 mM MnCl2, 1% BSA, and […] substrate, in a total volume of […]. Reactions were stopped by addition of […] of 50% trichloroacetic acid. Samples were then incubated on ice for 30 min and centrifuged at 10,000 g for 10 min at 4° C. Radioactivity recovered in the supernatant was measured by Cerenkov counting in a scintillation counter (Beckman).
as §1
Legend Table 8. Enzymatic activities of PP2C isoforms assayed using [^32P]phospho-Ser137 DARPP-32 as substrate. Phosphatase activity was measured by the release of ^32P, and Km and Vmax values were calculated from Lineweaver-Burk plots of the data.

[4] = neostriatal slices, compound at 300 μM, 2 min incubation
[5] = 2 min, read-out: Percent Phospho-Thr34
[6] = 10 min, read-out: Percent Phospho-Thr75
[7] = neostriatal slices, compound at 10 μM, 2 min incubation
[8] = neostriatal slices, compound at 10 μM, 10 min incubation
[9] = neostriatal slices, compound at 100 μM, 2 min incubation, vehicle control = 100

Nc1ncnc2c1ncn2[C@@H]1O[C@@H]2CO[P@@](O)(=S)O[C@H]2[C@H]1O [RpcAMPs]
Percent Phospho-Ser137 (DARPP-32 [1]; [4]): 108(10.0) Percent
Percent Phospho-Thr34 (DARPP-32 [1]; [4]): 88(13.1) Percent
Percent Phospho-Thr75 (DARPP-32 [1]; neostriatal slices, compound at 300 μM, 10 min incubation): 105(7.2) Percent

CN1CCc2cc(Cl)c(O)cc2[C@@H](c2ccccc2)C1 [SCH23390]
activity at 10 µM (DARPP-32 [1]; [5]): 76%
activity at 10 µM (DARPP-32 [1]; [6]): 109%

CCN(CC)CCOC(=O)c1cc(Cl)c(N)cc1OC [SDZ205,557]
Percent Phospho-Ser137 (DARPP-32 [1]; [7]): 102(8.8) Percent
Percent Phospho-Thr34 (DARPP-32 [1]; [7]): 94(16.7) Percent
Percent Phospho-Thr75 (DARPP-32 [1]; [8]): 103(17.5) Percent

C=CCN1CCc2c(cc(O)c(O)c2Cl)C(c2ccccc2)C1 (centres unmarked) [SKF 82958]
activity at 10 µM (DARPP-32 [1]; 2 min, read-out: Percent Phospho-Ser137): 115%
activity at 10 µM (DARPP-32 [1]; [5]): 552%
activity at 10 µM (DARPP-32 [1]; [6]): 65%

NC1CCN(c2cccc(Cl)n2)CC1 [SR 57227]
Percent Phospho-Ser137 (DARPP-32 [1]; [9]): 105(9.6) Percent
Percent Phospho-Thr34 (DARPP-32 [1]; [9]): 78(3.5)* Percent
Percent Phospho-Thr75 (DARPP-32 [1]; neostriatal slices, compound at 100 μM, 10 min incubation, vehicle control = 100): 88(4.8) Percent

NC1=N[C@H](O)[C@H]2[C@H]3O[C@]4(O)O[C@@H]([C@@H](O)[C@@]2(N1)[C@@H]4O)[C@]3(O)CO [Tetrodotoxin]
Percent Phospho-Ser137 (DARPP-32 [1]): 98(12.5) Percent
Percent Phospho-Thr34 (DARPP-32 [1]): 91.8(5.8) Percent
Percent Phospho-Thr75 (DARPP-32 [1]): 103(3.5) Percent

COc1ccc2c(c1)CC[C@@H]1[C@@H]2CC[C@]2(C)[C@@H](NCCCCCCN3C(=O)C=CC3=O)CC[C@@H]12 [U-73122]
Percent Phospho-Ser137 (DARPP-32 [1]; [7]): 86(6.2)* Percent
Percent Phospho-Thr34 (DARPP-32 [1]; [7]): 117(10.9) Percent
Percent Phospho-Thr75 (DARPP-32 [1]; [8]): 90(6.6) Percent

O=C(CCCN1CCC(O)(c2ccc(Cl)cc2)CC1)c1ccc(F)cc1 [haloperidol]
frontal cortex levels of DARPP-32 immunoreactivity (DARPP-32 [2]; chronic administration in rats): without effects

CN(C)CCCN1c2ccccc2CCc2ccccc21 [imipramine]
frontal cortex levels of DARPP-32 immunoreactivity (DARPP-32 [2]; chronic administration in rats): significant increases

CN1CC[C@]23c4c5ccc(O)c4O[C@H]2[C@@H](O)C=C[C@H]3[C@H]1C5 [morphine]
frontal cortex levels of DARPP-32 immunoreactivity (DARPP-32 [2]; rat, in vivo): without effects

B1: PP2Cg: recombinant his-tagged gamma isoform of protein phosphatase 2C cloned from rat striatum (protein)
chain: MGAYLSQPNTVKCSGDGVGAPRLPLPYGFSAMQGWRVSMEDAHNCIPELDNETAMFSVYDGHGGEEVALYCAKYLPDIIKDQKAYKEGKLQKALQDAFLAIDAKLTTDEVIKELAQIAGRPTEDEDDKEKVADEDDVDNEEAALLHEEATMTIEELLTRYGQNCQKGPPHTKSGTGIGDEPEPQGLNGEAGPEDPSRETPSQENGPTAKGHTGPSSNSDHGTEAGQIGEPGTATGEAGPSCSSASDKLPRVAKSKFFEDSEDESDEVEEEEDDSEECSEDEDGYSSEEAENEEDEDDTEEAEEDDDEEMMVPGMEGKEEPGSDSGTTAVVALIRGKQLIVANAGDSRCVVSEAGKALDMSYDHKPEDEVELARIKNAGGKVTMDGRVNGGLNLSRAIGDHFYKRNKNLPPQEQMISALPDIKVLTLTDDHEFMVIACDGIWNVMSSQEVVDFIQSKISQRDENGELRLLSSIVEELLDQCLAPDTSGDGTGCDNMTCIIICFKPRNTVELQPESGKRKLEEALSTEGAEENGNSDKKKAKRD
modifications: left off: small tags and cut ends
notes: recombinant his-tagged gamma isoform of protein phosphatase 2C cloned from rat striatum
Vmax of pNPP hydrolysis, Mn^2+ compared to Mg^2+ (higher) [3]: 15 fold
Km of pNPP hydrolysis, Mn^2+ compared to Mg^2+ (lower) ([3]; Mn^2+ substitutes Mg^2+): 24 fold
Vmax ([3]; in the presence of 20 mM Mg^2+): 0.09 µmol/mg/min
kcat ([3]; in the presence of 20 mM Mg^2+): 0.094 s⁻¹
Km ([3]; in the presence of 20 mM Mg^2+): 12800 µM
Vmax ([3]; in the presence of 20 mM Mn^2+): 1.29 µmol/mg/min
kcat ([3]; in the presence of 20 mM Mn^2+): 1.35 s⁻¹
Km ([3]; in the presence of 20 mM Mn^2+): 520 µM
Km (phospho-Ser137-DARPP-32): 7 µM
Vmax (phospho-Ser137-DARPP-32): 0.31 µmol/mg/min
kcat (phospho-Ser137-DARPP-32): 0.32 s⁻¹

B2: PP2Cb: recombinant his-tagged beta isoform of protein phosphatase 2C cloned from rat striatum (protein, UniProt P35815 2-390, looked up)
Protein phosphatase 1B: GAFLDKPKTEKHNAHGAGNGLRYGLSSMQGWRVEMEDAHTAVVGIPHGLEDWSFFAVYDGHAGSRVANYCSTHLLEHITTNEDFRAADKSGFALEPSVENVKTGIRTGFLKIDEYMRNFSDLRNGMDRSGSTAVGVMISPTHIYFINCGDSRAVLCRNGQVCFSTQDHKPCNPMEKERIQNAGGSVMIQRVNGSLAVSRALGDYDYKCVDGKGPTEQLVSPEPEVYEILRAEEDEFVVLACDGIWDVMSNEELCEFVNSRLEVSDDLENVCNWVVDTCLHKGSRDNMSIVLVCFANAPKVSDEAVKRDLELDKHLESRVEEIMQKSGEEGMPDLAHVMRILSAENIPNLPPGGGLAGKRNVIEAVYSRLNPNKDNDGGAGDLEDSLVAL
modifications: His tag
notes: recombinant his-tagged beta isoform of protein phosphatase 2C cloned from rat striatum
Vmax of pNPP hydrolysis, Mn^2+ compared to Mg^2+ (higher) [3]: approximately 50 fold
Vmax ([3]; in the presence of 20 mM Mg^2+): 0.20 µmol/mg/min
kcat ([3]; in the presence of 20 mM Mg^2+): 0.16 s⁻¹
Km ([3]; in the presence of 20 mM Mg^2+): 3200 µM
Vmax ([3]; in the presence of 20 mM Mn^2+): 10.72 µmol/mg/min
kcat ([3]; in the presence of 20 mM Mn^2+): 8.42 s⁻¹
Km ([3]; in the presence of 20 mM Mn^2+): 2290 µM
Km (phospho-Ser137-DARPP-32): 25.3 µM
Vmax (phospho-Ser137-DARPP-32): 0.99 µmol/mg/min
kcat (phospho-Ser137-DARPP-32): 0.78 s⁻¹
